Patent US20240299328A1, “COMPOSITIONS COMPRISING 15-HEPE AND METHODS OF TREATING AND/OR PREVENTING HEMATOLOGIC DISORDERS AND RELATED DISEASES” (Afimmune Limited, priority 2023, published 2024)

Assays:
[1] = system: humanized sickle cell (SS) mice; assay: Humanized SCD (SS) mice under normoxia, 6 weeks treatment; type: in vivo; details: 1000 mg/Kg/d for 6 weeks
Protocol: Animals and design of the study: Experiments were performed on 4-5 months-old sex matched healthy control (Hba^tm1(HBA) Tow Hbb^tm3(HBG1, HBB) Tow) and SCD (Hba^tm1(HBA)Tow Hbb^tm2(HBG1.HBB*)Tow) mice. The study used 4-5 months-old mice. The sickle cell related organ damage is not so severe to generate confounding factors when the impact of H/R induced stress is evaluated. This is also corroborated by the observation of Kasztan M et al who show gender-related differences in kidney function of humanized SCD mice becoming significant after 24 weeks (6 months) of age. The size of the mouse groups was established based on studies with the same mouse model for SCD generated by us and other labs. Mice were randomly assigned to the different treatment groups and analysis. Healthy and SS mice were treated with ether vehicle (hydroxypropyl methyl cellulose, HPMC, 0.5%) or Epeleuton in HPMC 0.5% (1000 mg/kg/day) administrated by gavage for 6 weeks. […] When indicated, mice underwent a hypoxia/reoxygenation stress (H/R): 10 hours hypoxia (8% oxygen) followed by 3 hours reoxygenation (21% oxygen) to mimic acute vaso-occlusive crisis as previously described. Whole blood and organs were collected from each mouse under isoflurane anesthesia. Organs were immediately removed and divided into two portions which were either immediately frozen in liquid nitrogen or fixed in 10% formalin and embedded in paraffin for histology. Hematological parameters were evaluated with a Sysmex XN-1000 Hematology Analyzer and red cell morphology was evaluated as previously reported. Biochemical assays were performed using standard biochemical assays, as previously reported. Plasmatic Pentraxin 2 and CCL-2 and CXCL-2 were measured respectively using the Mouse Pentraxin 2/SAP Quantikine ELISA Kit and the next generation ELISA kit according to the manufacturer's instruction.
Immunoblot analysis: Packed red cells were lysed in ice-cold phosphate lysis buffer (5 mM Na2HPO4, pH 8.0, containing protease inhibitor cocktail tablets, 3 mM benzamidine final concentration, 1 mM Na3VO4 final concentration) and centrifuged 10 min at 4° C. at 12,000 g. Red cell membrane (ghost) and cytosol fractions were obtained as previously reported. Frozen lung, kidney and aorta from each studied group were homogenized and lysed with iced lyses buffer (150 mM NaCl, 25 mM bicine, 0.1% SDS, 2% Triton X-100, 1 mM EDTA, protease inhibitor cocktail tablets, 1 mM Na3VO4 final concentration) then centrifuged 30 min at 4° C. at 12,000 g. Specific antibodies used are: anti Phospho-Tyrosine (clone PY99 from SCBT, Santa Cruz, CA (dilution 1:3000, 75 μg loaded) and clone 4G10 from Merck KGaA, Darmstadt, Germany (dilution 1:1600, 75 μgr loaded)); anti Phospho (Ser536) NF-kB p65 (dilution 1:1000, 75 μg loaded) and anti NF-kB p65 (clone C22B4) (dilution 1:1000, 75 μgr loaded) from Cell Signaling Technology (Danvers, MA, USA); anti-NLRP3/NALP3 from Vinci-Biochem Srl, Vinci, Italy (dilution 1:1000, 75 μgr loaded); anti Endothelin-1 (ET-1) form AbCam, Cambridge, UK (dilution 1:1000, 75 μgr loaded); anti VCAM-1 (R and D Systems, Minneapolis, MN, USA (dilution 1:1000, 40 μgr loaded)); anti ICAM-1 (clone EP1442Y, dilution 1:1000, 75 μgr loaded, AbCam, Cambridge, UK); anti TXAS-1 (Cayman, Ann Arbor, MI, USA); anti Nrf2-phospho-S40 (Clone EP1809Y, dilution 1:1000, 75 μgr loaded, AbCam, Cambridge, UK); anti-Nrf2 (dilution 1:1000, 75 μgr loaded, AbCam, Cambridge, UK); anti Nqo1 from Santa Cruz Biotechnology, Inc, CA, USA (clone C-19; dilution 1:1000, 75 μgr/μl loaded); anti-heme oxygenase 1(HO-1) form SCBT (Santa Cruz, CA, USA (dilution 1:1000, 50 μgr loaded); E-selectin (H-300) (dilution 1:1000, 75 μgr loaded); anti GAPDH from SCBT (Santa Cruz, CA, USA (dilution 1:5000, 50 μgr loaded)); anti Actin from SCBT (Santa Cruz, CA, USA (clone 2A3, dilution 1:1000, 50 μgr/loaded)). […]

[2] = system: α-SMA, TIMP-1, TGF-β and Collagen Type 1 mRNA; assay: UUO study: quantitative RT-PCR of kidney; type: in vivo; details: UUO mice kidney, normalized to 36B4, Day 14, mean ± SD
Protocol: Quantitative RT-PCR: Total ribonucleic acid (RNA) was extracted from kidney samples using RNAiso. One μg of RNA was reverse-transcribed using a reaction mixture containing […] (mM) of magnesium chloride (MgCl2), 40 U RNase inhibitor, 0.5 mM dNTP, 6.28 µM random hexamer, 5× first strand buffer, 10 mM dithiothreitol and 200 U MMLV-RT in a final volume of 20 μL. The reaction was carried out for 1 hour at 37° C., followed by 5 minutes at 99° C. Real-time PCR was performed using real-time PCR DICE and TB Green™ Premix Ex Taq™ II. To calculate the relative […] (mRNA) expression level, the expression of each gene (e.g., α-SMA, TIMP-1, TGF-β and Collagen Type 1) was normalized to that of reference gene 36B4 (gene symbol: Rplp0). Information regarding the PCR-primer sets and the plate layout are described in Tables 1 and 2.

## CC/C=C\C[C@H](O)/C=C/C=C\C/C=C\C/C=C\CCCC(=O)OCC [DS102, 15(S)-hydroxy-(5Z,8Z,11Z,13E,17Z)-eicosapentaenoic acid ethyl ester]
[1]
  tolerability and body weight: well tolerated without major changes in body weight
[1]; normoxia
  ALT: significant reduction
  AST: no change
  CRP: significant reduction
  circulating neutrophils: significant reduction
  expression of VCAM-1, ICAM1 and endothelin-1 (ET-1) in lungs, kidneys, livers: significantly reduction
  liver protein oxidation: marked reduction
  pentraxin-2: trend toward a reduction
  plasma CCL2/MCP1: lower
[1]; normoxia, vs vehicle
  BUN: no change
  activation of NF-kB in lungs, kidneys, and livers: significantly reduced
  expression of ICAM-1 and ET-1 in isolated aortas: significantly down-regulated
  serum creatinine: trend toward a reduction
[1]; normoxic conditions
  hematocrit or reticulocyte counts: no significant changes
[2]; 50 mg/kg PO QD Day 0-13
  Alpha-SMA mRNA expression level: 3.74 ± 0.81
  Collagen Type 1 mRNA expression level: 11.80 ± 1.78
  TGF-β mRNA expression level: 4.31 ± 0.69
  TIMP-1 mRNA expression level: 138.30 ± 30.39
[2]; 500 mg/kg PO QD Day 0-13
  Alpha-SMA mRNA expression level: 5.54 ± 1.54
  Collagen Type 1 mRNA expression level: 14.09 ± 2.88
  TGF-β mRNA expression level: 5.37 ± 0.76
  TIMP-1 mRNA expression level: 124.80 ± 28.60
